{
  "source": "patent US20230390403A1",
  "about": "“COMPOSITIONS AND METHODS FOR DRUG DELIVERY” (North Carolina State University, priority 2020, published 2023)",
  "key": {"[1]": {"experiment": "In vitro PTX release: hydrolysis of PTX succinic acid in PBS (HPLC)", "format": "physicochemical", "conditions": "for half-life: PBS, 37° C.; for PTX-succinate remaining intact: after 24 hours", "procedure": "In Vitro PTX Release. Hydrolytic studies of PTX succinic acid were carried out at 37° C. in PBS containing 0.01% DMSO and 0.1% Tween 80 at pH 7.4 and pH 6.5. 5.33 μM of PTX-succinic acid was dissolved in a 5 ml of medium and kept continuously stirring at 150 rpm/min. 50 μL of sample was removed at predetermined time intervals of 0, 24, 48, 72 and 96 hours and replaced with 50 μL of fresh media. Removed samples were mixed with 50% of acetonitrile and analyzed using Agilent 1290 HPLC system with Agilent 2.1×50 mm C18 column and mobile phase consisting of 60% ammonium formate and 40% acetonitrile. Concentration of PTX-SA and free PTX were determined using calibration curves.\nThe hydroxyl group at the C-2′ position is necessary for paclitaxel's anticancer activities. Therefore, the succinate ester must hydrolyze to achieve desired antitumor responses (41). We measured paclitaxel release from PTX-succinate in PBS at 37° C. in both neutral pH and the slightly acidic conditions (pH˜6.5) commonly observed in the tumor microenvironments. Disappearance of the PTX succinate peak and appearance of PTX peak was quantified using HPLC. […] After 24 hours, nearly 82% of PTX-succinate remained intact in acidic conditions, while 54% remained in the neutral condition. […] In contrast at the more acidic pH, paclitaxel continued its accumulation in the release media, with 60% of initial dose observed at 96 hours."}, "dermal tissue": {"test_system": "dermal tissue", "experiment": "Intradermal anchoring of Cy7-maleimide (IVIS fluorescence)", "format": "in vivo, CD-1 mice", "procedure": "FIG. 12 is a plot showing the percent of the initial injection dose (% ID) maintained one day and one week following injection of Cy7-maleimide alone, Cy7-maleimide plus tris(2-carboxyethyl)phosphine (TCEP), and Cy7-maleimide plus mercaptoethanol (MCE).\nTo investigate whether maleimide molecules can anchor to dermal tissue by binding to available thiol groups, CD-1 mice were injected intradermally with Cy7-maleimide (50 uL of 0.2 mM) and monitored for fluorescence over 1 week using an IVIS imager. ICG/ICG excitation and emission filters were used for all IVIS images. Cy7-maleimide plus TCEP was used to attempt to increase free thiols by breaking disulfide bonds."}, "U87 tumor [2]": {"test_system": "U87 tumor", "experiment": "Intratumoral anchoring of Cy7-maleimide (IVIS fluorescence)", "format": "in vivo, nude mice", "conditions": "50 uL of 0.2 mM, 1 week after injection", "procedure": "FIG. 13 illustrates the intratumoral anchoring of Cy7-maleimide after one week.\nTo investigate whether active maleimide molecules can anchor to tissue in a tumor, nude mice were injected subcutaneously with U87 tumor cells mixed with Matrigel. Once tumor reached 100 mm^3, Cy7-maleimide (50 uL of 0.2 mM) was injected intratumorally and monitored for fluorescence over 1 week using an IVIS imager. ICG/ICG excitation and emission filters were used for all IVIS images. […] This validated that anchorable drug compounds containing a maleimide tissue binding moiety could efficiently react with thiol moieties present in proteins found within tumors following intratumoral injection."}, "U87 tumor [3]": {"test_system": "U87 tumor", "experiment": "Tumor inhibition and survival after intratumoral or intravenous aldoxorubicin", "format": "in vivo, nude mice", "conditions": "intratumoral 10.5 mg/kg; compared to saline and intravenous aldoxorubicin", "description": "FIGS. 14A-14D show the impact of intratumoral anchoring and local tumor release of a chemotherapeutic agent (aldoxorubicin) functionalized with a maleimide tissue binding moiety. FIG. 14A plots the percent change in tumor volume as a function of days after injection for mice treated with saline injection alone (control), intravenous injection of aldoxorubicin, and intratumoral injection of aldoxorubicin. FIG. 14B is a plot showing the probability of survival for mice treated with saline injection alone (control), intravenous injection of aldoxorubicin, and intratumoral injection of aldoxorubicin. FIG. 14C is a plot comparing tumor volume 7 days after treatment with saline injection alone (control), treatment with intravenous injection of aldoxorubicin, and treatment with intratumoral injection of aldoxorubicin. FIG. 14D is a plot comparing tumor volume 14 days after treatment with saline injection alone (control), treatment with intravenous injection of aldoxorubicin, and treatment with intratumoral injection of aldoxorubicin.\nIn a further proof-of-principle study, aldoxorubicin was used to validate the concept of anchoring (and subsequent local tumor release) of a chemotherapeutic agent functionalized with a maleimide tissue binding moiety. […] Tumor size and weight were measured at varying intervals following injection. […]"}, "[4]": {"test_system": "KPC 4662 murine pancreatic tumor", "experiment": "In vivo assessment of PTX-sNHS induced apoptosis (cleaved caspase 3 staining)", "design": "species or system C57BL/6 mice", "conditions": "72 hours after single intratumoral injection, 20 mg/kg", "quoted_text": "To assess the ability of intratumoral depots to release free paclitaxel and induce apoptotic tumor cell death, ectopic pancreatic tumor model was developed by subcutaneous inoculation of approximately 1*10^6 KPC 4662 murine pancreatic tumor cells in 1:1 PBS/matrigel (Corning/cat #354234) solution on the dorsal flanks of 8 week old female albino C57BL/6 mice (Charles River). Once the tumors were approximately 100 mm^3 in volume, animals were randomly divided into four groups to receive either no treatment or single intratumoral injection of vehicle (50% NMP: alfa aesar, #AA44063-K2, 50% Saline: cat #470302-026, VWR), free paclitaxel (Medkoo, cat #100690, 20 mg/kg) and paclitaxel-sNHS (n=3/group, 20 mg/kg). […] For quantification of apoptosis, CC-3-stained vs hematoxylin-stained areas were measured with respect to total tumor area (45, 46).\nTo investigate whether intratumoral injection of TRAP paclitaxel has therapeutic efficacy in vivo, we studied paclitaxel-induced apoptosis in the fibrous, syngeneic KPC 4662 pancreatic adenocarcinoma mouse model. […] For quantification of apoptosis, whole tissue sections were scanned to detect CC-3 positive areas and quantified to assess the percent of whole tumor area undergoing apoptosis. […] Quantification of apoptosis was performed by computationally separating CC-3 stained from hematoxylin stained areas (45). […]"}, "[5]": {"experiment": "Aqueous solubility compared to paclitaxel", "format": "physicochemical"}},
  "data": [
    {"compound": "2′-O-succinyl paclitaxel [PTX-succinate]", "values": [
      {"measurement": "half-life", "setting": "[1]; neutral pH", "result": "~37", "unit": "h"},
      {"measurement": "half-life", "setting": "[1]; pH 6.5", "result": "~56", "unit": "h"},
      {"measurement": "free paclitaxel in release media, of initial dose", "setting": "[1]; acidic pH (6.5), 96 hours", "result": 60, "unit": "%"},
      {"measurement": "PTX-succinate remaining intact", "setting": "[1]; acidic conditions (pH 6.5)", "result": "~82", "unit": "%"},
      {"measurement": "PTX-succinate remaining intact", "setting": "[1]; neutral condition", "result": 54, "unit": "%"},
      {"measurement": "free paclitaxel released (maximum)", "setting": "[1]; neutral pH, 96 hours", "result": 32, "unit": "%"}
    ]},
    {"compound": "C[N+]1=C(C=CC2=CC(=CC=C3N(CCCCCC(=O)NCCN4C(=O)C=CC4=O)c4ccccc4C3(C)C)CCC2)C(C)(C)c2ccccc21.[Cl-]", "note": "[Cy7-maleimide, cyanine 7 maleimide]", "values": [
      {"measurement": "skin irritation or skin toxicity", "setting": "dermal tissue; intradermal injection, monitored over 1 week", "result": "No skin irritation or skin toxicity was observed"},
      {"measurement": "injection dose maintained", "setting": "dermal tissue; intradermal, 50 uL of 0.2 mM, after 1 week", "result": "approximately 10%"},
      {"measurement": "injection dose maintained", "setting": "U87 tumor [2]", "result": "approximately 18%"}
    ]},
    {"compound": "COc1cccc2c1C(=O)c1c(O)c3c(c(O)c1C2=O)C[C@@](O)(/C(CO)=N/NC(=O)CCCCCN1C(=O)C=CC1=O)C[C@@H]3O[C@H]1C[C@H](N)[C@H](O)[C@H](C)O1", "note": "[aldoxorubicin]", "values": [
      {"measurement": "survival probability", "setting": "U87 tumor [3]", "result": "improved"},
      {"measurement": "tumor inhibition", "setting": "U87 tumor [3]", "result": "improved"}
    ]},
    {"compound": "CC(=O)O[C@H]1C(=O)[C@@]2(C)[C@H]([C@H](OC(=O)c3ccccc3)[C@]3(O)C[C@H](OC(=O)[C@H](O)[C@@H](NC(=O)c4ccccc4)c4ccccc4)C(C)=C1C3(C)C)[C@]1(OC(C)=O)CO[C@@H]1C[C@@H]2O", "note": "[paclitaxel]", "values": [
      {"measurement": "apoptotic area (CC-3 stained), of total tumor area", "setting": "[4]", "result": 27, "unit": "%"},
      {"measurement": "necrosis, of tumor area", "setting": "[4]; color saturation analysis", "result": "~30", "unit": "%"},
      {"measurement": "aqueous solubility", "setting": "[5]", "result": "poorly soluble"}
    ]}
  ]
}
